PMC6193465 (Journal of the American Chemical Society, 2018)
Like-named read-outs stand apart in the source and are kept apart here. Where no end group is shown, it is not given here.

Columns and labels:
[1] = test system: indicator bacterial strains; test: antibacterial activity, minimum inhibitory concentrations; format: cell-based; conditions: range over the strains tested (Table S5)
[2] = test system: prokaryotic protein synthesis; test: in vitro transcription-translation assay; format: biochemical; conditions: read-out: half-maximum inhibitory concentration, inhibition of prokaryotic protein synthesis
[3] = aqueous solubility; format: physicochemical
[4] = comparison value for 1; cited from earlier work

thiostrepton Aa [compound 7] showed a minimum inhibitory concentrations [1] of 0.018 to 0.098 µg/mL, a minimum inhibitory concentrations ([1]; in molar units) of 0.010 to 0.058 µM and an IC50 [2] of 260 ± 40 nM. For the same substance, the aqueous solubility [3] was 26.01 ± 0.05 µM.

In the case of “IASASCTTCICTCSCSS (also: bicyclic or more (positions not given here)) [compound 1, thiostrepton A, reference compound]”, the IC50 [2] is given as 500 ± 40 nM and the aqueous solubility [4] is given as 21.88 ± 0.05 µM.
